Source: patent US8420657B2 (Novartis AG, priority 2008, dated 2013)

Legend:
GST-JAK2(808-1132) = target: T1, GST-JAK2(808-1132) (Homo sapiens, UniProt O60674); assay: JAK2 kinase assay (Caliper mobility shift, LabChip 3000); type: biochemical
T1 construct: GST-JAK2(808-1132); purchased Invitrogen (Carlsbad, USA) #4288
In short: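 Recombinant GST-JAK2(808-1132) kinase domain with FITC-labelled JAK3tide peptide substrate and ATP; 60 min at 30 °C, EDTA stop. Substrate/product ratio read by microfluidic mobility shift; compounds at 8 final concentrations, 10 to 0.003 μM.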

[1] = tested on: JAK1/JAK2-dependent nuclear translocation of STAT1-GFP in HT1080 fibrosarcoma cells; assay: STAT1 nuclear translocation assay (Cellomics), IFN-γ stimulated HT1080 STAT1-GFP cells; type: cell-based; settings: Homo sapiens, HT-1080, STAT1 translocation pathway
Excerpt: The medium-throughput (96-well format) cellular automated fluorescence microscopy Cellomics assay can be routinely used to assess the functional activation of Janus Kinases (JAKs), based on the nuclear translocation of their substrate, Signal Transducer and Activator of Transcription (STAT). Nuclear translocation can be monitored either in HT1080 fibrosarcoma cells stably transfected with STAT1 fused to Green Fluorescence Protein (GFP) or in U-2 OS osteosarcoma cells stably transfected with STAT5 fused to Green Fluorescence Protein (GFP). Stimulation of HT1080 cells with interferon-γ (IFN-γ) results in JAK1/JAK2-dependent nuclear translocation of STAT1-GFP, whereas stimulation of U-2 OS cells with recombinant human erythropoietin (rhEpo) results in JAK2-dependent nuclear translocation of STAT5-GFP, both of which can be quantified using the Cellomics Cyto/NucTrans software package. This assay may be used to provide an assessment of the nuclear-cytoplasmic differential (NCD) of STAT-GFP using Hoechst dye to define the boundaries of the nucleus.
HT1080 fibrosarcoma cells may be obtained from ATCC and can be cultured in alpha Modified Eagle Medium with 10% FCS. Cells can be transfected with pEGFP-N2 STAT1 using Fugene 6 Transfection Reagent following the manufacturers' protocol. 24 hours after transfection the medium can be replaced and selected in 1 mg/ml Geneticin.
Compounds can be dissolved in DMSO to a final stock concentration of 10 mM and stored as aliquots at 4° C. Compounds may be pre-diluted in 100% DMSO at 10 mM, 3 mM 1 mM, 0.3 mM, 0.1 mM, 0.03 mM, 0.01 mM and 0.003 mM. Subsequently, compounds may be diluted in medium and added in 50 μl to the cells. The final compound concentrations tested may be 10 μM, 3 μM 1 μM, 0.3 μM, 0.1 μM, 0.03 μM, 0.01 μM and 0.003 μM and the final DMSO concentration can be 0.1%.
HT1080 STAT1-GFP cells may be seeded at a density of 10,000 cells per well in clear-bottom black 96-well Packard View-Plates™. 16-24 hours later, the cells can be treated for 2 hours with 100 ng/ml IFN-γ, washed twice in pre-warmed PBS and fixed in 200 μl of pre-warmed fixation solution (PBS, 3.7% Formaldehyde) for 10 minutes. The plates may be washed twice in 200 μl PBS and incubated, protected from light, in 100 μl of DNA-staining solution (PBS, 0.5 μg/ml Hoechst-33342) for 1 minute. The plates may then be washed once in PBS, and 200 μl PBS finally added per well. The plates, being finally covered with a black adhesive, may be either read directly or stored at 4° C. for later imaging. Where appropriate, the compounds may be added 30 min before stimulation with IFN-γ.
The plates can be read on a Cellomics® ArrayscanII automated fluorescence microscope plate reader equipped with a Mercury-Xenon white light illumination source and a Zeiss Axiovert inverted microscope, using the XF100 dichroic/emission filter cube and matching excitation filters, 10× magnification, and a 0.3 numerical aperture objective. Image acquisition and analysis can be performed using a customized protocol based on the ‘NuclearTranslocation’ Bioapplication. For each well, multiple images (fields) can be acquired until a minimum of 1000 cells are counted using two 2 channels: Channel 1 (Hoechst)=focus+nuclear mask, Channel 2 (GFP)=signal quantification in mask areas as outlined below. Nuclei may be first identified based on the Hoechst staining and a mask generated for each nucleus that then serves as a template to generate a circle (eroded inwards by 1 pixel) and a 3 pixel-wide collar-like ring (off-set outwards by 1 pixel), in which the nuclear and cytoplasmic intensity of GFP, respectively, are quantified in the corresponding channel. High content analysis yields numerous measurements per cell and the GFP intensity differential between the nuclear and the cytoplasmic masks may be chosen as a measure of sub-cellular STAT-GFP relocation. The resulting values may be averaged for all cells in the well to return a single measurement plus standard deviation. […]

T1 sequence (O60674 808-1132): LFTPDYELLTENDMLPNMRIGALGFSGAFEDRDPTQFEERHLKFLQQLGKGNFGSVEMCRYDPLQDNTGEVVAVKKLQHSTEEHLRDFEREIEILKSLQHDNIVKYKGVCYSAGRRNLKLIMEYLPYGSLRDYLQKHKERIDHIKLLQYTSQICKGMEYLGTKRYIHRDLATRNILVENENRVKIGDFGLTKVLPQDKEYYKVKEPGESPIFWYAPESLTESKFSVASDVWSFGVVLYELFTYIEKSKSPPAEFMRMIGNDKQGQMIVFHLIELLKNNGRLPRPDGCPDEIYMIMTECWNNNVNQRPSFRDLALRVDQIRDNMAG

Compound | IC50 (GST-JAK2(808-1132)) [nM] | IC50 [1] [nM]
O=C(c1ccc(-n2ccc3cnc(Nc4ccc(CN5CCOCC5)cc4)nc32)cc1F)N1CCOCC1 [Example 288, {2-Fluoro-4-[2-(4-morpholin-4-ylmethyl-phenylamino)-pyrrolo[2,3-d]pyrimidin-7-yl]-phenyl}-morpholin-4-yl-methanone] | < 3 | 67.5
Cc1ccc(Nc2ncc3ccn(-c4ccc(CC(=O)N5CCOCC5)cc4)c3n2)cc1C [Example 166, 2-{4-[2-(3,4-Dimethyl-phenylamino)-pyrrolo[2,3-d]pyrimidin-7-yl]-phenyl}-1-morpholin-4-yl-ethanone] | 3.4 | 145
CS(=O)(=O)c1ccc(-n2ccc3cnc(Nc4ccc(C#N)cc4)nc32)cc1 [Example 95, 4-[7-(4-Methanesulfonyl-phenyl)-7H-pyrrolo[2,3-d]pyrimidin-2-ylamino]-benzonitrile] | 16.5 | 2360
Cc1ccc(Nc2ncc3ccn(-c4ccc(CN5CCOCC5)cc4)c3n2)cc1 [Example 146, [7-(4-Morpholin-4-ylmethyl-phenyl)-7H-pyrrolo[2 3-d]pyrimidin-2-yl]-p-tolyl-amine] | 30 | 2510
CC(C)Oc1ccc(Nc2ncc3ccn(-c4ccc(CN5CCCNCC5)c(F)c4)c3n2)cc1 [Example 108] | 6.6 | 1680
CCOc1ccc(Nc2ncc3cc(C)n(-c4ccc(CC(=O)N5CCN(C)CC5)cc4)c3n2)cc1OCC [Example 167, 2-{4-[2-(3,4-Diethoxy-phenylamino)-6-methyl-pyrrolo[2,3-d]pyrimidin-7-yl]-phenyl}-1-(4-methyl-piperazin-1-yl)-ethanone] | 39 | 2070
CCN(CC)CCOc1cccc(Nc2ncc3ccn(-c4ccc(S(C)(=O)=O)cc4)c3n2)c1 [Example 36, [3-(2-Diethylamino-ethoxy)-phenyl]-[7-(4-methanesulfonyl-phenyl)-7H-pyrrolo[2,3-d]pyrimidin-2-yl]-amine] | < 3 | 10.9
CCOc1ccc(Nc2ncc3ccn(-c4ccc(S(C)(=O)=O)cc4)c3n2)cc1OCC [Example 1, (3,4-Diethoxy-phenyl)-[7-(4-methanesulfonyl-phenyl)-7H-pyrrolo[2,3-d]pyrimidin-2-yl]-amine] | < 3 | 43.5
Cc1ccc(Nc2ncc3ccn(-c4cc(F)c(C(=O)N5CCOCC5)c(F)c4)c3n2)cn1 [Example 219, {2,6-Difluoro-4-[2-(6-methyl-pyridin-3-ylamino)-pyrrolo[2,3-d]pyrimidin-7-yl]-phenyl}-morpholin-4-yl-methanone] | 7.7 | 518
CS(=O)(=O)c1ccc(-n2ccc3cnc(Nc4ccc(Cn5ccnc5)cc4)nc32)cc1 [Example 43, (4-Imidazol-1-ylmethyl-phenyl)-[7-(4-methanesulfonyl-phenyl)-7H-pyrrolo[2,3-d]pyrimidin-2-yl]-amine] | < 3 | 350
CC(C)Oc1ccc(Nc2ncc3ccn(-c4ccc(C(=O)N5CCN(C)CC5)c(F)c4)c3n2)cc1 [Example 85, {2-Fluoro-4-[2-(4-isopropoxy-phenylamino)-pyrrolo[2,3-d]pyrimidin-7-yl]-phenyl}-(4-methyl-piperazin-1-yl)-methanone] | 3.8 | 3500
O=C1CN(Cc2ccc(Nc3ncc4ccn(-c5cc(F)c(C(=O)N6CCOCC6)c(F)c5)c4n3)cc2)CCN1 [Example 259, 4-(4-{7-[3,5-Difluoro-4-(morpholine-4-carbonyl)-phenyl]-7H-pyrrolo[2,3-d]pyrimidin-2-ylamino}-benzyl)-piperazin-2-one] | < 3 | 80
CN1CCN(c2ccc(Nc3ncc4ccn(-c5cc(F)c(C(=O)N6CCOCC6)c(F)c5)c4n3)cn2)CC1 [Example 221] | 4.7 | 360
Cc1ccc(Nc2ncc3ccn(-c4cc(F)c(CN5CCOCC5(C)C)c(F)c4)c3n2)cc1C [Example 309, {7-[4-(3,3-Dimethyl-morpholin-4-ylmethyl)-3,5-difluoro-phenyl]-7H-pyrrolo[2,3-d]pyrimidin-2-yl}-(3,4-dimethyl-phenyl)-amine] | 780 | 4160
Cc1ccc(Nc2ncc3ccn(-c4ccc(C[S+](C)[O-])cc4)c3n2)cc1 (stereo not shown) [Example 139, [7-(4-Methanesulfinylmethyl-phenyl)-7H-pyrrolo[2,3-d]pyrimidin-2-yl]-p-tolyl-amine] | 11 | 630
Cc1ccc(Nc2ncc3ccn(-c4cc(F)c(CN5CCS(=O)(=O)CC5)c(F)c4)c3n2)cc1Cl [Example 129, (3-Chloro-4-methyl-phenyl)-{7-[4-(1,1-dioxido-thiomorpholin-4-ylmethyl)-3,5-difluoro-phenyl]-7H-pyrrolo[2,3-d]pyrimidin-2-yl}-amine] | 9 | 471
Cc1ccc(Nc2ncc3ccn(-c4ccc(CN5CCOCC5)cc4)c3n2)cc1C [Example 160, (3,4-Dimethyl-phenyl)-[7-(4-morpholin-4-ylmethyl-phenyl)-7H-pyrrolo[2,3-d]pyrimidin-2-yl]-amine] | 41.8 | 973
COc1cc(Nc2ncc3ccn(-c4ccc(C(=O)N5CCN(C)CC5)c(F)c4)c3n2)ccc1F [Example 154, {2-Fluoro-4-[2-(4-fluoro-3-methoxy-phenylamino)-pyrrolo[2,3-d]pyrimidin-7-yl]-phenyl}-(4-methyl-piperazin-1-yl)-methanone] | 250 | 6440
O=C(c1ccc(-n2ccc3cnc(Nc4ccc(F)cc4)nc32)cc1)N1CCCC1 [Example 57, {4-[2-(4-Fluoro-phenylamino)-pyrrolo[2,3-d]pyrimidin-7-yl]-phenyl}-pyrrolidin-1-yl-methanone] | < 3 | 772
CCN1CCN(C(=O)Cc2cccc(Nc3ncc4ccn(-c5cc(F)c(CN6CCOCC6)c(F)c5)c4n3)c2)CC1 [Example 172, 2-{3-[7-(3,5-Difluoro-4-morpholin-4-ylmethyl-phenyl)-7H-pyrrolo[2,3-d]pyrimidin-2-ylamino]-phenyl}-1-(4-ethyl-piperazin-1-yl)-ethanone] | < 3 | 220
Cc1cc(Nc2ncc3ccn(-c4ccc(S(C)(=O)=O)cc4)c3n2)ccc1C(=O)N1CCN(C)CC1 [Example 73, {4-[7-(4-Methanesulfonyl-phenyl)-7H-pyrrolo[2,3-d]pyrimidin-2-ylamino]-2-methyl-phenyl}-(4-methyl-piperazin-1-yl)-methanone] | < 3 | 80.5
CN1CCN(C(=O)Cc2cccc(Nc3ncc4ccn(-c5ccc(S(C)(=O)=O)cc5)c4n3)c2)CC1 [Example 70, 2-{3-[7-(4-Methanesulfonyl-phenyl)-7H-pyrrolo[2,3-d]pyrimidin-2-ylamino]-phenyl}-1-(4-methyl-piperazin-1-yl)-ethanone] | 5.6 | 275
CS(=O)(=O)c1ccc(-n2ccc3cnc(Nc4ccc(C5CCCN5)cc4)nc32)cc1 (stereo not shown) [Example 53, [7-(4-Methanesulfonyl-phenyl)-7H-pyrrolo[2,3-d]pyrimidin-2-yl]-(4-pyrrolidin-2-yl-phenyl)-amine] | < 3 | 90.5
